We go through 5 compounds from patent US4757080A, “1,4-dihydropyridine derivatives” (Heumann Pharma GmbH & Co., priority 1986, dated 1988).

In series [1] the target is T1, isolated guineapig's ileum (Cavia porcellus).
T1 construct: isolated guineapig's ileum; from tissue; host or cells: isolated guinea pig ileum
The series is described as follows: calcium antagonistic activity on isolated guineapig's ileum stimulated with barium chloride. The settings on record: read-out: pA2-value (BaCl2) (converted).

The next series deals with T2, H2-receptor (Cavia porcellus, UniProt P47747).
T2 construct: Technique for the making of dose-response curves in isolated organs; from tissue
T2 sequence (P47747 whole entry): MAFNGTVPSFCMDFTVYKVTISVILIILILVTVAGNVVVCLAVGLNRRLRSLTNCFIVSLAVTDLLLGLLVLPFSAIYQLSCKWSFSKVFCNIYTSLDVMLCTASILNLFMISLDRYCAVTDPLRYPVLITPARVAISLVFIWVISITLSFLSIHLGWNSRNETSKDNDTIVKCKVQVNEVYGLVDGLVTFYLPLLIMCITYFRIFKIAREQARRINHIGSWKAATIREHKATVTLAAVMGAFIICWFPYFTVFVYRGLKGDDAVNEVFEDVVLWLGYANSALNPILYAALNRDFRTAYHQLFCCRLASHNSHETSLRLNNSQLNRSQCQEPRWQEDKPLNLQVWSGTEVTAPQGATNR
In words: H2 agonistic activity (pD2-values), method of J. M. van Rossum, cumulative dose-response curves in isolated organs. An excerpt: Technique for the making of dose-response curves in isolated organs and the evaluation of drug parameters, Arch. Intern. Pharmacodyn. Therap.

The test system of series [2] is arterial resistance, coronary dilatation, activity of the heart. The settings on record: in words, background, cited from earlier work.

T1 sequence (O35505 whole entry): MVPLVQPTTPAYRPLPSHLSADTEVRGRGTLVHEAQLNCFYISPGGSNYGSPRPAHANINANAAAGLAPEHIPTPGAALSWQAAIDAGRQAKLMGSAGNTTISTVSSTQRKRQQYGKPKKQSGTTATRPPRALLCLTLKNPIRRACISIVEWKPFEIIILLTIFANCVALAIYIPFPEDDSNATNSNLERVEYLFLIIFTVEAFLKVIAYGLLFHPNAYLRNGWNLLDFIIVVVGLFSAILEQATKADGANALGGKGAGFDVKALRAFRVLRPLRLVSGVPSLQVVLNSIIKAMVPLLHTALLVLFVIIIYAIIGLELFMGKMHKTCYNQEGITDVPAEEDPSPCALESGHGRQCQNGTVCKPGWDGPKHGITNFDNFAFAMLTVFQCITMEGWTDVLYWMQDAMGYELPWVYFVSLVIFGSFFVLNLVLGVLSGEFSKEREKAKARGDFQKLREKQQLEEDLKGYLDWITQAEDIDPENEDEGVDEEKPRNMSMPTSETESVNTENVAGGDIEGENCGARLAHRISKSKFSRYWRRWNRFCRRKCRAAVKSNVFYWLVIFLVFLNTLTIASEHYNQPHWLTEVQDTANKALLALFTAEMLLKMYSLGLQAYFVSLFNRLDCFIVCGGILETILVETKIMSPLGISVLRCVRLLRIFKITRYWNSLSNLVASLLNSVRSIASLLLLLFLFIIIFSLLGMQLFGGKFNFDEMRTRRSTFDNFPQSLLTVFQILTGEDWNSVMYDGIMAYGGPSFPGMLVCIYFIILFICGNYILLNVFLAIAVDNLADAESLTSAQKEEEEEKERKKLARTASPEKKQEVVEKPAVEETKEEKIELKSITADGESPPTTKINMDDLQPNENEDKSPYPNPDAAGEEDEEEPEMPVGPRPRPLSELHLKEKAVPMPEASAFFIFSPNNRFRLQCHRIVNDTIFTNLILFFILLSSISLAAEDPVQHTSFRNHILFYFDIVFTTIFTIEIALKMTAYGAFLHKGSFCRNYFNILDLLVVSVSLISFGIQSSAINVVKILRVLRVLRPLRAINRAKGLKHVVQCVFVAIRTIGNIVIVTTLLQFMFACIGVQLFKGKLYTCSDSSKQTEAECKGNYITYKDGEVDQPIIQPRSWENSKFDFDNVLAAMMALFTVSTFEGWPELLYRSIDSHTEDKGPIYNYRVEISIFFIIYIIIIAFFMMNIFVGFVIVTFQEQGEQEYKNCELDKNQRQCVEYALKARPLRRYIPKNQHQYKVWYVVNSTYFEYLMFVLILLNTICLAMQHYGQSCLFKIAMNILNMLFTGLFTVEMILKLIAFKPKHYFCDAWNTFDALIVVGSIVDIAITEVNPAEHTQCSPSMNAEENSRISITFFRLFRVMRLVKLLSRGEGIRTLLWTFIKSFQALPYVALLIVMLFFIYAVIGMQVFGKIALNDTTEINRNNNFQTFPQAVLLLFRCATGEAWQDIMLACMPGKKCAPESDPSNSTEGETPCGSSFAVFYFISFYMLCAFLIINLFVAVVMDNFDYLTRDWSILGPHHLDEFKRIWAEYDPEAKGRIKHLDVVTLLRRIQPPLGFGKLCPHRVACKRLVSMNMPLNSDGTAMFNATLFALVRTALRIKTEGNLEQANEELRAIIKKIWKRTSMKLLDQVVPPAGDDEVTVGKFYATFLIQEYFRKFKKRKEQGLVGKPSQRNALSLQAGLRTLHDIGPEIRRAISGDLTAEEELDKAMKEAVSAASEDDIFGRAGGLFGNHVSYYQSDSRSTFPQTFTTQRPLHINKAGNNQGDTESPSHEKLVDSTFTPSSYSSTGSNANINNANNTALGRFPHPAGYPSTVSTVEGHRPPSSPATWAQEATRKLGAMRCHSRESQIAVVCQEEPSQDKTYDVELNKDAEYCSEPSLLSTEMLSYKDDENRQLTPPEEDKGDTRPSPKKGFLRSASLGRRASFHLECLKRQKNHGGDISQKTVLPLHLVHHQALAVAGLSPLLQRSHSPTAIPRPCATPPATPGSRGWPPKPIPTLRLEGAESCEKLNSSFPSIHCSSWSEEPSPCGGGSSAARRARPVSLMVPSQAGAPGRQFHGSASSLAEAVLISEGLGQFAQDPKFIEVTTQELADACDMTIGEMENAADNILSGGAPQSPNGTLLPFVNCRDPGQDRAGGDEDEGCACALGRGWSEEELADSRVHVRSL

For the compound `COC(=O)C1=C(C)NC(C)=C(C(=O)OCCNC(=N)NCCCc2c[nH]cn2)C1c1ccccc1[N+](=O)[O-]` (stereo not shown) [Example 1, N^1-[2-[1,4-Dihydro-2,6-dimethyl-3-methoxycarbonyl-4-(2-nitrophenyl)-pyridine-5-carboxy]ethyl]-N^2-[3-(1H-imidazol-4-yl)propyl]-guanidine-hydriodide], the Kb in series [1] was 38 nM. Also, the EC50 on H2-receptor was 47.9 nM.
Take `COC(=O)C1=C(C)NC(C)=C(C(=O)OCCCCCCNC(=N)NCCCc2c[nH]cn2)C1c1cccc([N+](=O)[O-])c1` (stereo not shown) [Example 7, N^1-[6[1,4-dihydro-2,6-dimethyl-3-methoxycarbonyl-4-(3-nitrophenyl)-pyridine-5-carboxy]hexyl]-N^2 [3-(1H-imidazol-4-yl)propyl]-guanidine hydriodide]: the Kb in series [1] was 110 nM. Also, at H2-receptor, the EC50 was 38.9 nM.
`COC(=O)C1=C(C)NC(C)=C(C(=O)OCCNC(=N)NCCCc2c[nH]cn2)C1c1cccc(Cl)c1Cl` (stereo not shown) [Example 8, N^1-[2-[1,4-Dihydro-2,6-dimethyl-3-methoxycarbonyl-4-(2,3-dichlorophenyl)-pyridine-5-carboxy]ethyl]-N^2-[3-(1H-imidazol-4-yl)propyl]-guanidine hydriodide]: in series [1], the Kb is 30.2 nM. On H2-receptor, this compound gave an EC50 of 331 nM.
The compound `Cc1[nH]cnc1CSCCNC(=N)NCCCc1c[nH]cn1` [Impromidine, reference compound] gave an EC50 on H2-receptor of 21.4 nM.
Consider `COC(=O)C1=C(C)NC(C)=C(C(=O)OC)C1c1ccccc1[N+](=O)[O-]` [Nifedipine, 1,4-dihydro-2,6-dimethyl-4-(2-nitrophenyl)-3,5-pyridine carboxylic acid dimethyl ester], for which, in series [2], the arterial resistance entry was “lowers the arterial resistance” and the coronary dilatory effect entry was “very marked coronary dilatory effect”. Besides, the “inhibition of the activity of the heart” value in series [2] (therapeutic doses) is “without inhibiting the activity of the heart”.
